According to US11761894B2, “Silicon-rhodamine fluorescent probe containing hydrophobic group and use thereof” (AJOU UNIVERSITY INDUSTRY—ACADEMIC COOPERATION FOUNDATION, priority 2019, dated 2023):

Tests used:
[1] = Photophysical properties (excitation/emission wavelength, absolute quantum yield, fluorescence intensity in PBS); assay type: physicochemical; conditions: for Φ (quantum yield): absolute quantum yield
Protocol: All reactions were carried out under an atmosphere of nitrogen or argon in air-dried glassware with magnetic stirring. Air- and/or moisture-sensitive liquids were transferred with syringe. Organic solutions were concentrated by rotary evaporation at 25-60° C. at 15-30 torr. All solvents and common materials were purchased from suppliers and used without further purification. Column chromatography was carried out as “Flash Chromatography” using Biotage MPLC machine. ^1H NMR and ^13C NMR data were recorded on an JEOL ECZ-600R Magnetic Resonance System (600 MHz) in Ajou University. Recorded shifts are reported in parts per million (6): Chemical shift, multiplicity (s=singlet, d=doublet, t=triplet, q=quartet, m=multiplet, br=broad), coupling constant (J, Hz) and integration. Low resolution mass spectrometry (LRMS) was obtained by LC/MS system, Finnigan MSQplus Surveyer (Thermo Scientific) or 6120 Quadrupole LC/MS (Agilent Technologies). The progress of reaction was monitored using thin layer chromatography (TLC) (silica gel 60, F254 0.25 mm), and components were visualized by observation under UV light (254 and 365 nm) or by treating the TLC plates with Phosphonolybdic acid (PMA), KMnO4, or ninhydrin followed by heating. Cell culture reagents including fatal bovine serum, culture media, and antibiotic-antimycotic solution were purchased from GIBCO. MitoTracker Green, and Hoechst were purchased from Invitrogen. The culture dish and glassbottom dish were purchased from CORNING, and SPL. All spectra experiments were performed in a 1×1 cm quartz cuvette. Fluorescence emission spectra were recorded on JASCO FP-8200 spectrofluorometer, and UV absorption spectra were recorded on JASCO V-670 spectrophotometer. Absolute quantum yield was measured by QE-2000 (Otsuka Electronics).

[2] = system: mitochondria in HeLa cells; assay: Colocalization test of SiR-Mito probes with MitoTracker green in HeLa cells; assay type: cell-based, human; conditions: 1 μM probe, 1 h; for Mitochondria Targeting (Pearson coefficient for colocalization with MitoTracker green): 0.5 μM MitoTracker green
Protocol: HeLa cells were incubated with cell culture media containing 1 μM SiR-Mito probe, and 0.5 μM MitoTracker green. After 1 h, HeLa cells were washed three times with 1×PBS for and observed with a LEICA DMi8 fluorescent microscope. Each experiment was observed using 512-542 nm emitter for FITC channel (for MitoTracker Green), and 663-738 nm exciter, 545-625 nm emitter for Cy5 channel (for SiR-Mito probes). Scale bar: 50 μm.
HeLa human cervical cancer cells were cultured in Dulbecco's modified eagle media (DMEM, GIBCO) containing 10% fetal bovine serum (FBS, GIBCO) and 1% penicillin (GIBCO) at 37° C. in a humidified incubator with 5% CO2. For the fluorescence microscope imaging, cells were harvested using TrypLE™ Express (GIBCO) and resuspended in fresh culture medium. Harvested cells with a density of 4.0×10^3 cells/well were seeded on a HeLa 96 black well plate (CORNING) and incubated for 24 h. Cells were incubated with SiR-Mito probes (1 μM) and MitoTracker Green (0.5 μM) for 60 min. After the incubation, cells were washed with 1×PBS for three times and observed with inverted fluorescence microscope (DMi8, LEICA). Each experiment was observed using a 325-375 nm exciter, 435-485 nm emitter for DAPI channel, 460-500 nm exciter, 512-542 nm emitter for FITC channel, 541-551 nm exciter, 565-605 nm emitter for Rhodamine channel, and 663-738 nm exciter, 545-625 nm emitter for Cy5 channel.
To determine the effect of probe hydrophobicity on the efficiency of targeting to mitochondria, the Pearson coefficient for colocalization of SiR-Mito probes and MitoTracker green, a commercial fluorescent mitochondrial bioprobe, was measured (FIG. 1). For the colocalization test, human cervical cancer HeLa cells were seeded on 96-well plates and incubated for 1 h with 1 μM of each different SiR-Mito probe and 0.5 μM MitoTracker green, washed briefly with 1×PBS, and imaged with a LEICA DMi8 fluorescent microscope using the 40× objective.

Compound	Em (emission wavelength) [1]	Ex (excitation wavelength) [1]	Φ (quantum yield) [1]	Mitochondria Targeting (Pearson coefficient for colocalization with MitoTracker green) [2]	Intracellular fluorescence (SiR channel) [2]
N-(10-(5-((cyclohexylmethyl) carbamoyl)-2-methylphenyl)-7 (dimethylamino)-5,5-dimethyldibenzo[b,e]silin-3(5H)-ylidene)-N-methylmethanaminium [SiR-Mito 5]	669 nm	651 nm	0.29	* (* 0.7 ≤ R < 0.8)	
CCCCNC(=O)c1ccc(C)c(C2=C3C=CC(=[N+](C)C)C=C3[Si](C)(C)c3cc(N(C)C)ccc32)c1 [SiR-Mito 3, N-(10-(5-(butylcarbamoyl)-2-methylphenyl)-7-(dimethylamino)-5,5-dimethyldibenzo[b,e]silin-3(5H)-ylidene)-N-methylmethanaminium]	665 nm	652 nm	0.29		
Cc1ccc(C(=O)NCc2ccccc2)cc1C1=C2C=CC(=[N+](C)C)C=C2[Si](C)(C)c2cc(N(C)C)ccc21 [SiR-Mito 4, N-(10-(5-(benzylcarbamoyl)-2-methylphenyl)-7-(dimethylamino)-5,5-dimethyldibenzo[b,e]silin-3(5H)-ylidene)-N-methylmethanaminium]	666 nm	651 nm	0.30	* (* 0.7 ≤ R < 0.8)	
Cc1ccc(C(=O)NCCO)cc1C1=C2C=CC(=[N+](C)C)C=C2[Si](C)(C)c2cc(N(C)C)ccc21 [SiR-Mito 1, N-(7-(dimethylamino)-10-(5-((2-hydroxyethyl)carbamoyl)-2-methylphenyl)-5,5-dimethyldibenzo[b,e]silin-3(5H)-ylidene)-N-methylmethanaminium]	668 nm	661 nm	0.32		absence of fluorescence signal
CCCCCCC(C)NC(=O)c1ccc(C)c(C2=C3C=CC(=[N+](C)C)C=C3[Si](C)(C)c3cc(N(C)C)ccc32)c1 (centres unmarked) [SiR-Mito 10, N-(7-(dimethylamino)-5,5-dimethyl-10-(2-methyl-5-(octan-2-ylcarbamoyl)phenyl)dibenzo[b,e]silin-3(5H)-ylidene)-N-methylmethanaminium]	667 nm	654 nm	0.27	*** (*** 0.9 ≤ R)	
Cc1ccc(C(=O)NC(C)(C)CC(C)(C)C)cc1C1=C2C=CC(=[N+](C)C)C=C2[Si](C)(C)c2cc(N(C)C)ccc21 [SiR-Mito 7, N-(7-(dimethylamino)-5,5-dimethyl-10-(2-methyl-5-((2,4,4-trimethylpentan-2-yl)carbamoyl)phenyl)dibenzo[b,e]silin-3(5H)-ylidene)-N-methylmethanaminium]	667 nm	650 nm	0.29	*** (*** 0.9 ≤ R)	
CCNC(=O)c1ccc(C)c(C2=C3C=CC(=[N+](C)C)C=C3[Si](C)(C)c3cc(N(C)C)ccc32)c1 [SiR-Mito 2, N-(7-(dimethylamino)-10-(5-(ethylcarbamoyl)-2-methylphenyl)-5,5-dimethyldibenzo[b,e]silin-3(5H)-ylidene)-N-methylmethanaminium]	668 nm	662 nm	0.40	* (* 0.7 ≤ R < 0.8)	
Cc1ccc(C(=O)NCCc2ccccc2)cc1C1=C2C=CC(=[N+](C)C)C=C2[Si](C)(C)c2cc(N(C)C)ccc21 [SiR-Mito 6, N-(7-(dimethylamino)-5,5-dimethyl-10-(2-methyl-5-(phenethylcabamoyl)phenyl)dibenzo[b,e]silin-3(5H)-ylidene)-N-methylmethanaminium]	668 nm	651 nm	0.30	*** (*** 0.9 ≤ R)	
Cc1ccc(C(=O)NCCC2CCCCC2)cc1C1=C2C=CC(=[N+](C)C)C=C2[Si](C)(C)c2cc(N(C)C)ccc21 [SiR-Mito 9, N-(10-(5-((2-cyclohexylethyl)carbamoyl)-2-methylphenyl)-7-(dimethylamino)-5,5-dimethyldibenzo[b,e]silin-3(5H)-ylidene)-N-methylmethanaminium]	666 nm	652 nm	0.26	*** (*** 0.9 ≤ R)	
